Experimental data from patent US10429393B2, “Tumor deconstruction platform for the analysis of intra-tumor heterogeneity” (NATIONAL CENTRE FOR CELL SCIENCE, priority 2014, dated 2019).

Key:
[1] = test system: A4 serous ovarian adenocarcinoma xenografts; experiment: Flow cytometric resolution of residual tumour composition (proliferative hierarchy, ploidy, cell cycle; 18 fractions) after therapy; format: in vivo, mice; settings: for drug sensitive tumour populations (cell targets): individual treatments, grid of FIG. 9
Method: FIG. 8 represents data discussed in Example 3. a. Schematic of paclitaxel administration regime; b. Frequency (±SEM) of tumor fractions based on proliferative hierarchy, ploidy and cell cycle analysis in control and paclitaxel treated where populations 1-18 are as depicted in FIG. 6b, inset indicates frequency of cycling CSCs, 18a-PKH^hi Eu G0, 18b-PKH^hi Eu G1,18c-PKH^hi Eu S, 18d-PKH^hi Eu G2/M, 18e-PKW^hi Aneu G0, 18f-PKH^hi Aneu G1, 18g-PKH^hiAneu S, 18h-PKW^hi Aneu G2/M;*−P<0.05; **−P<0.001; ***−P<0.0001.
FIG. 9 represents the efficacy of various drug regimes through resolution of residual tumor composition after therapy in comparison with a naïve (untreated) tumor for following drug regimes—Pac ST (paclitaxel short-term: 3 doses—48 h intervals—1 week recovery), Pac LT (paclitaxel long-term, 2 cycles of ST regime); Gem ST (gemcitabine short-term, 3 doses—36 h intervals—36 h recovery), Gem LT (gemcitabine long-term, 5 doses—36 h intervals—36 h recovery); 5AzadC (3 doses—48 h intervals—1 week recovery); mAbX (6 doses of an uncharacterised antibody developed in the Bapat lab—48 h intervals—48 h recovery); Gem+mAbX ST combination therapy (3 doses of each drug—48 h intervals—48 h recovery), Gem+mAbX LT combination therapy (2 cycles each comprising of 3 doses of each drug—48 h intervals—1 week recovery); triple drug combination of gemcitabine, mAbX and 5AzadC LT (6 therapeutic cycles, each comprising of 3 doses of each drug at 48 h intervals and 1 week recovery); populations 1-18 and 18a-18h are as defined in FIGS. 6b and 8 respectively.
Standard techniques are used in the process that is illustrative rather than limiting; other common methods are acceptable in the practice of this invention. Tumor tissues were rinsed several times with phosphate buffered saline (PBS) containing antibiotic and/or anti-fungal agents, finely minced and suspended in basal media supplemented with cell dissociation agent(s) with intermittent pipetting to loosen cell aggregates. Various combinations of dissociation agents can be used depending on the tumor type and appearance and including but not being limited to EDTA, EGTA, cocktails of enzymes including trypsin, dispases, collagenases, DNAse, and the like. On dispersion of tumor cell aggregates, enzymatic activity is usually terminated by addition of serum, cells pelleted by centrifugation and washed several times with basal medium and filtered through cell strainers to obtain a single cell suspension. Cell lines are harvested as per established guidelines to obtain a single cell suspension. […] Labeled cells are xenografted in immunocompromised mice, which could be either nude, SCID, Beige/SCID, NOD/SCID, Rag-/Rag-, humanised mice models, or any known experimental xenograft animal model. Control tumors were concurrently generated using unlabeled cells. Xenografts were harvested as per animal experimental protocols and digested to generate single cell suspension from which the different sub-populations were resolved through flow cytometry.
Basic cell parameters FSC and SSC were adjusted with ND filter 1.5/2 with appropriate FSC and SSC thresholds. Cell debris was eliminated based on low FSC—low SSC, doublets using Area—width parameters and RBCs based on nuclear Propidium iodide (PI) staining. PI excitation/emission maxima are at 535/617 nm (PE channel of blue laser used for analysis). Freshly labeled cells are used to set the gates for VMF^hi cells, while TDSCS from unlabeled tumors was used in order to set the gates for VMF^neg cells. Other fluorophores including Hoechst (UV laser), Pyronin Y (PE channel of blue laser), APC (red laser) and others can be incorporated into this scheme based on their compatibility and resolution capabilities of the flow equipment used for data acquisition and/or sorting as per experimental requirements.
G0/G1, S and G2/M (as illustrated in FIG. 3) provides information regarding the proliferative capability of a tumor. […]

[2] = test system: A4 serous ovarian adenocarcinoma xenografts; experiment: Tumour volume of A4 xenografts after drug regime; format: in vivo, mice; settings: paclitaxel i.p. 25 mg/kg body weight; at the end of the regime
[3] = paclitaxel treated vs control, FIG. 8b

Question: For `Nc1ncn([C@H]2C[C@H](O)[C@@H](CO)O2)c(=O)n1` [5 AzadC, 5AzadC], which “drug sensitive tumour populations (cell targets)” value [1] is on record?
Answer: effective against aneuploid fractions

Question: For `Nc1ccn([C@@H]2O[C@H](CO)[C@@H](O)C2(F)F)c(=O)n1` [gemcitabine], which “drug sensitive tumour populations (cell targets)” value [1] is on record?
Answer: effective in short-term sensitization of all populations within the PKH^neg fraction

Question: Which results are given for `CC(=O)O[C@H]1C(=O)[C@@]2(C)[C@H]([C@H](OC(=O)c3ccccc3)[C@]3(O)C[C@H](OC(=O)[C@H](O)[C@@H](NC(=O)c4ccccc4)c4ccccc4)C(C)=C1C3(C)C)[C@]1(OC(C)=O)CO[C@@H]1C[C@@H]2O` [paclitaxel]?
Answer: reduction in tumor volumes [2]: 50%; CSC re-entry into the cell cycle (cycling populations within PKH^hi fraction) ([1]; after therapy vs naive tumor, FIG. 8b inset, FIG. 9): presence of cycling populations that have undergone less than 3-4 doublings within the PKH^hi fraction; frequency of aneuploid progenitor cells ([1]; following paclitaxel treatment vs control): Increased frequency of aneuploid progenitor cells; PKH^hi (CSC) fraction [1, 3]: enhanced PKH^hi (CSC) fraction; PKH^neg fraction [1, 3]: decreased PKH^neg fraction
